# Test results: paper PMC3206071, “Characterization of a Truncated Metabotropic Glutamate Receptor in a Primitive Metazoan, the Parasitic Flatworm Schistosoma mansoni” (PLoS ONE, 2011)
# Experiments:
# [1] = molecular target: T1, SmGBP (S. mansoni glutamate-binding protein) (Schistosoma mansoni, UniProt E2IFW0); assay: [3H]glutamate radioligand competition with unlabelled glutamate, PEG precipitation, purified SmGBP-His
# [2] = molecular target: T1, SmGBP (S. mansoni glutamate-binding protein); assay: [3H]glutamate radioligand competition at […], purified SmGBP-His
# [3] = molecular target: T1, SmGBP (S. mansoni glutamate-binding protein); assay: as above; conditions: read-out: % inhibition at 10 mM
# T1 sequence (E2IFW0 entry or part of it): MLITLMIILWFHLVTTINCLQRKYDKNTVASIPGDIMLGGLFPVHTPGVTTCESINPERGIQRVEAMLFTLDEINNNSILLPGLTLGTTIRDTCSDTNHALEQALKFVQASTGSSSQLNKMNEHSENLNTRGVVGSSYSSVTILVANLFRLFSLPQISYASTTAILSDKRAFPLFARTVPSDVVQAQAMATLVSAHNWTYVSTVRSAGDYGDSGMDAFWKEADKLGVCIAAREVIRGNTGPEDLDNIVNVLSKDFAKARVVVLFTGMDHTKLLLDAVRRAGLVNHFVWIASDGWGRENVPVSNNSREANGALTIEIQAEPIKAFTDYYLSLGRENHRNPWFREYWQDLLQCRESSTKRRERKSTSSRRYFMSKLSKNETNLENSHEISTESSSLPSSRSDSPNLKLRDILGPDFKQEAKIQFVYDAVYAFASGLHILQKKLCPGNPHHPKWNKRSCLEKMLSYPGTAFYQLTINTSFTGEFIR
structure (smiles),measurement,setting,value
N[C@@H](CCC(=O)O)C(=O)O [glutamate],IC50,[1],300 ± 50 nM
"N[C@H](C(=O)O)c1cc(O)cc(O)c1 [(S)-3,5-DHPG, (S)-3,5-Dihydroxyphenylglycine]","[3H]glutamate radioligand competition at 10 mM, purified SmGBP-His",[2],"also recognized some glutamatergic agents, for example, agonists DHPG and AP4 and the antagonist, MCPG"
"N[C@@H](CCP(=O)(O)O)C(=O)O [L-AP4, L-(+)-2-Amino-4-phosphonobutyric acid]","[3H]glutamate radioligand competition at 10 mM, purified SmGBP-His",[2],"able to compete with [^3H]glutamate, AP4 (mGluR III agonist) and S)-MCPG (mGluRs I/II antagonist) being the strongest"
N[C@@H](CC(=O)O)C(=O)O [aspartate],inhibition at 10000 µM,[3],84%
NC(=O)CC[C@H](N)C(=O)O [glutamine],inhibition at 10000 µM,[3],77%
"C[C@@](N)(C(=O)O)c1ccc(C(=O)O)cc1 [(S)-MCPG, (S)-a-Methyl-4-carboxyphenylglycine]","[3H]glutamate radioligand competition at 10 mM, purified SmGBP-His",[2],"able to compete with [^3H]glutamate, AP4 (mGluR III agonist) and S)-MCPG (mGluRs I/II antagonist) being the strongest"
